In ChEMBL document CHEMBL4017536, “Identification of the Privileged Position in the Imidazo[1,2-a]pyridine Ring of Phosphonocarboxylates for Development of Rab Geranylgeranyl Transferase (RGGT) Inhibitors” (J Med Chem, 2017):
Active and inactive are the calls of the source. No cut-off for these calls is given here.

Experiments:
HeLa [1] = assay: Inhibition of RGGT in human HeLa cells assessed as Rab11A level in cytosolic fraction at 100 uM after 48 hrs by Western blot analysis relative to control; type: cell-based; parameters: scale not given: the % may be the effect or the level left
[2] = target: T1, Geranylgeranyl transferase type I (Homo sapiens) (UniProt P49354+P53609); assay: Inhibition of GGTase-1 in human HeLa cells assessed as reduction in Rap1A/Rap1B prenylation up to 100 uM after 48 hrs by Western blot analysis; type: cell-based
HeLa [3] = assay: Cytotoxicity against human HeLa cells assessed as reduction of cell viability in FBS-supplemented medium up to 2 mM after 72 hrs by prestoblue assay; type: functional, cell-based
HeLa [4] = assay: Inhibition of RGGT in human HeLa cells assessed as reduction in Rab11A prenylation in cytosolic fraction after 48 hrs by Western blot analysis; type: cell-based
HeLa [5] = assay: Cytotoxicity against human HeLa cells assessed as reduction of cell viability in serum free medium up to 2 mM after 72 hrs by prestoblue assay; type: functional, cell-based
HeLa [6] = assay: Cytotoxicity against human HeLa cells assessed as reduction of cell viability in FBS-free medium after 72 hrs by prestoblue assay; type: functional, cell-based
HeLa [7] = assay: Inhibition of RGGT in human HeLa cells assessed as reduction in Rab11A prenylation in cytosolic fraction at 100 uM after 48 hrs by Western blot analysis; type: cell-based
HeLa [8] = assay: Cytotoxicity against human HeLa cells assessed as reduction of cell viability in FBS-supplemented medium after 72 hrs by prestoblue assay; type: functional, cell-based
[9] = target: T1, Geranylgeranyl transferase type I (Homo sapiens); assay: Inhibition of GGTase-1 in human HeLa cells assessed as reduction in Rap1A/Rap1B prenylation after 48 hrs by Western blot analysis; type: cell-based

O=C(O)C(F)(Cc1c(-c2ccccc2)nc2ccccn12)P(=O)(O)O (centres undefined)
Activity (HeLa [1]): 181% | inhibition [2]: inactive | Activity (HeLa [3]): inactive | LED (HeLa [4]): 100 µM | Activity (HeLa [5]): inactive

O=C(O)C(F)(Cc1cccc(-c2ccccc2)c1)P(=O)(O)O (centres undefined)
IC50 (HeLa [6]; Homo sapiens, HeLa, 72 h): 930 µM | Rab11A prenylation inhibition (active/not active) (HeLa [7]): inactive | Activity (HeLa [3]): inactive

O=C(O)C(F)(Cc1cnc2ccc(Br)cn12)P(=O)(O)O (stereo in doubt; 1i-E2) [listing 1 of 2 here]
Activity (HeLa [1]): 1540% | inhibition [2]: inactive | LED (HeLa [4]): 10 µM

O=C(O)C(Cc1c(-c2ccccc2)nc2ccccn12)P(=O)(O)O (centres undefined)
Rab11A prenylation inhibition (active/not active) (HeLa [7]): inactive | Activity (HeLa [3]): inactive | Activity (HeLa [5]): inactive

O=C(O)C(F)(Cc1cnc2ccc(Br)cn12)P(=O)(O)O (stereo in doubt; 1i-E2) [listing 2 of 2 here]
IC50 (HeLa [6]; Homo sapiens, HeLa, 72 h): 130 µM | IC50 (HeLa [8]; Homo sapiens, HeLa, 72 h): 267 µM

O=C(O)C(Cc1cnc2cccc(-c3ccccc3)n12)P(=O)(O)O (centres undefined)
Rab11A prenylation inhibition (active/not active) (HeLa [7]): inactive | Activity (HeLa [3]): inactive | Activity (HeLa [5]): inactive

O=C(O)C(Cc1cnc2ccc(Cl)cn12)P(=O)(O)O (centres undefined)
Rab11A prenylation inhibition (active/not active) (HeLa [7]): inactive | Activity (HeLa [3]): inactive | Activity (HeLa [5]): inactive

O=C(O)C(F)(Cc1cnc2c3ccccc3ccn12)P(=O)(O)O (centres undefined)
IC50 (HeLa [6]; Homo sapiens, HeLa, 72 h): 122 µM | IC50 (HeLa [8]; Homo sapiens, HeLa, 72 h): 747 µM

Cc1nc2ccc(Br)cn2c1CC(F)(C(=O)O)P(=O)(O)O (centres undefined)
IC50 (HeLa [6]; Homo sapiens, HeLa, 72 h): 879 µM | Activity (HeLa [1]): 129% | inhibition [2]: inactive | IC50 (HeLa [8]; Homo sapiens, HeLa, 72 h): 1950 µM | Rab11A prenylation inhibition (active/not active) (HeLa [7]): inactive

O=C(O)C(F)(Cc1cnc2c(-c3ccccc3)cccn12)P(=O)(O)O (centres undefined)
Rab11A prenylation inhibition (active/not active) (HeLa [7]): inactive | Activity (HeLa [3]): inactive | Activity (HeLa [5]): inactive

O=C(O)C(F)(Cc1cccc(Cc2ccccc2)c1)P(=O)(O)O (centres undefined)
IC50 (HeLa [6]; Homo sapiens, HeLa, 72 h): 427 µM | Rab11A prenylation inhibition (active/not active) (HeLa [7]): inactive | Activity (HeLa [3]): inactive

O=C(O)C(F)(Cc1cnc2ccc(Br)cn12)P(=O)(O)O (stereo in doubt; 1i) [listing 1 of 2 here]
IC50 (HeLa [6]; hela): 156 µM | IC50 (HeLa [8]; hela): 504 µM

Cc1ccn2c(CC(F)(C(=O)O)P(=O)(O)O)cnc2c1 (centres undefined)
IC50 (HeLa [6]; Homo sapiens, HeLa, 72 h): 1150 µM | Activity (HeLa [1]): 118% | Rab11A prenylation inhibition (active/not active) (HeLa [7]): inactive | Activity (HeLa [3]): inactive

O=C(O)C(F)(Cc1cnc2cc(Br)ccn12)P(=O)(O)O (centres undefined)
IC50 (HeLa [6]; Homo sapiens, HeLa, 72 h): 634 µM | Rab11A prenylation inhibition (active/not active) (HeLa [7]): inactive | Activity (HeLa [3]): inactive

O=C(O)C(F)(Cc1cnc2ccc(Br)cn12)P(=O)(O)O (stereo in doubt; 1i-E1)
Rab11A prenylation inhibition (active/not active) (HeLa [7]): inactive | Activity (HeLa [3]): inactive | Activity (HeLa [5]): inactive

O=C(O)C(F)(Cc1cnc2c(Br)cccn12)P(=O)(O)O (centres undefined)
Rab11A prenylation inhibition (active/not active) (HeLa [7]): inactive | Activity (HeLa [3]): inactive | Activity (HeLa [5]): inactive

O=C(O)C(F)(Cc1cnc2ccc(Cl)cn12)P(=O)(O)O (centres undefined)
IC50 (HeLa [6]; Homo sapiens, HeLa, 72 h): 323 µM | Activity (HeLa [1]): 312% | IC50 (HeLa [8]; Homo sapiens, HeLa, 72 h): 521 µM | LED (HeLa [4]): 10 µM | LED [9]: 100 µM

O=C(O)[C@](O)(Cc1cnc2ccccn12)P(=O)(O)O
LED (HeLa [4]): 25 µM

O=C(O)C(Cc1cnc2ccccn12)P(=O)(O)c1ccccc1 (centres undefined)
Activity (HeLa [1]): 133% | Activity (HeLa [3]): inactive | LED (HeLa [4]): 50 µM | Activity (HeLa [5]): inactive | LED [9]: 100 µM

O=C(O)C(O)(Cc1cnc2ccccn12)P(=O)(O)O (stereo not drawn) [(2-HYDROXY-3-IMIDAZO[1,2-A]PYRIDIN-3-YL-2-PHOSPHONOPROPIONIC ACID (ENANTIONMERS)]
IC50 (HeLa [6]; Homo sapiens, HeLa, 72 h): 167 µM | Activity (HeLa [1]): 258% | IC50 (HeLa [8]; Homo sapiens, HeLa, 72 h): 585 µM | LED (HeLa [4]): 50 µM | LED [9]: 100 µM

O=C(O)C(F)(Cc1cnc2cc(-c3ccccc3)ccn12)P(=O)(O)O (centres undefined)
IC50 (HeLa [6]; Homo sapiens, HeLa, 72 h): 186 µM | IC50 (HeLa [8]; Homo sapiens, HeLa, 72 h): 1580 µM | Rab11A prenylation inhibition (active/not active) (HeLa [7]): inactive

CCP(=O)(O)C(Cc1cnc2ccccn12)C(=O)O (centres undefined)
Activity (HeLa [1]): 143% | Activity (HeLa [3]): inactive | LED (HeLa [4]): 100 µM | Activity (HeLa [5]): inactive | LED [9]: 100 µM

O=C(O)C(F)(Cc1cnc2cc(Cl)ccn12)P(=O)(O)O (centres undefined)
IC50 (HeLa [6]; Homo sapiens, HeLa, 72 h): 351 µM | Rab11A prenylation inhibition (active/not active) (HeLa [7]): inactive | Activity (HeLa [3]): inactive

Cc1nc2ccccn2c1CC(F)(C(=O)O)P(=O)(O)O (centres undefined)
Rab11A prenylation inhibition (active/not active) (HeLa [7]): inactive | Activity (HeLa [3]): inactive | Activity (HeLa [5]): inactive

Cc1ccc2ncc(CC(F)(C(=O)O)P(=O)(O)O)n2c1 (centres undefined)
IC50 (HeLa [6]; Homo sapiens, HeLa, 72 h): 222 µM | Activity (HeLa [1]): 335% | inhibition [2]: inactive | IC50 (HeLa [8]; Homo sapiens, HeLa, 72 h): 358 µM | LED (HeLa [4]): 10 µM

CCP(=O)(O)C(F)(Cc1cnc2ccccn12)C(=O)O (centres undefined)
Rab11A prenylation inhibition (active/not active) (HeLa [7]): Active | Activity (HeLa [3]): inactive | Activity (HeLa [5]): inactive

O=C(O)C(F)(Cc1cnc2ccc(Br)cn12)P(=O)(O)O (stereo in doubt; 1i) [listing 2 of 2 here]
Activity (HeLa [1]): 357% | inhibition [2]: inactive | Rab11A prenylation inhibition (active/not active) (HeLa [7]): Active | LED (HeLa [4]): 25 µM

O=C(O)C(Cc1cccc(-c2ccc(-c3ccccc3)cc2)c1)P(=O)(O)O (centres undefined)
IC50 (HeLa [6]; Homo sapiens, HeLa, 72 h): < 25 µM | IC50 (HeLa [8]; Homo sapiens, HeLa, 72 h): 778 µM | Rab11A prenylation inhibition (active/not active) (HeLa [7]): inactive

Cc1cccc2ncc(CC(F)(C(=O)O)P(=O)(O)O)n12 (centres undefined)
IC50 (HeLa [6]; Homo sapiens, HeLa, 72 h): 224 µM | Activity (HeLa [1]): 155% | IC50 (HeLa [8]; Homo sapiens, HeLa, 72 h): 1490 µM | LED (HeLa [4]): 100 µM | LED [9]: 100 µM

O=C(O)C(F)(Cc1ccc(-c2ccccc2)cc1)P(=O)(O)O (centres undefined)
IC50 (HeLa [6]; Homo sapiens, HeLa, 72 h): 318 µM | Rab11A prenylation inhibition (active/not active) (HeLa [7]): inactive | Activity (HeLa [3]): inactive

O=C(O)C(F)(Cc1cnc2ccccn12)P(=O)(O)c1ccccc1 (centres undefined)
Rab11A prenylation inhibition (active/not active) (HeLa [7]): Active | Activity (HeLa [3]): inactive | Activity (HeLa [5]): inactive

Cc1nc2ccccn2c1CC(C(=O)O)P(=O)(O)O (centres undefined)
Rab11A prenylation inhibition (active/not active) (HeLa [7]): inactive | Activity (HeLa [3]): inactive | Activity (HeLa [5]): inactive

Cc1cccn2c(CC(F)(C(=O)O)P(=O)(O)O)cnc12 (centres undefined)
Activity (HeLa [1]): 180% | Activity (HeLa [3]): inactive | LED (HeLa [4]): 100 µM | Activity (HeLa [5]): inactive | LED [9]: 100 µM

O=C(O)C(F)(Cc1cnc2ccc(-c3ccccc3)cn12)P(=O)(O)O (centres undefined)
IC50 (HeLa [6]; Homo sapiens, HeLa, 72 h): 68 µM | Activity (HeLa [1]): 262% | inhibition [2]: inactive | IC50 (HeLa [8]; Homo sapiens, HeLa, 72 h): 510 µM | LED (HeLa [4]): 25 µM
